Data as given in patent US20180200257A1, “METHODS FOR THE TREATMENT OF INFLAMMATORY DISORDERS” (Galapagos NV, priority 2015, published 2018).

System: subjects with moderately to severely active RA who have an inadequate response to methotrexate (MTX)
Assay: Study 1 (add-on to MTX) - DAS28(CRP) scores
Assay type: in vivo, human
Parameters: key to DAS28(CRP) mean CFB (LOCF): change from baseline in DAS28(CRP) score (joints, CRP, 0-100 VAS)
Procedure: Double-blind, placebo-controlled add on study in subjects with moderately to severely active RA who have an inadequate response to methotrexate (MTX) (oral or parenteral).
595 subjects randomized to one of 6 dose regimens of Compound 1 (dosed as [Compound 1:HCl:3H2O]) (3 dose levels administered either once or twice daily) or placebo on top of each subject's stable dose of MTX.
Compound 1 (dosed as [Compound 1:HCl:3H2O]) is dosed for twelve weeks once daily (q.d.) (50 mg, 100 mg or 200 mg) or twice daily (b.i.d.) (25 mg, 50 mg or 100 mg); or placebo.
At Week 12, the subjects on placebo who have not achieved 20% improvement in swollen joint count (SJC66) and tender joint count (TJC68) are re-randomized automatically to receive Compound 1 (dosed as a [Compound 1:HCl:3H2O]) either at 100 mg q.d. or 50 mg b.i.d. doses in a blinded fashion; subjects on 50 mg q.d. who have not achieved 20% improvement in SJC66 and TJC68 will be assigned to 100 mg q.d. and subjects on 25 mg b.i.d. that have not achieved a 20% improvement in SJC66 and TJC68 will be assigned to 50 mg b.i.d. Subjects who switch treatment at week 12 are handled as if they discontinued at week 12 for the purpose of statistical analysis, whereas subjects in the other groups will maintain their randomized treatment until Week 24.
The (DAS28(CRP)) is a system developed and validated by the European League Against Rheumatism (EULAR) to measure the progress and improvement of rheumatoid arthritis and has been extensively validated (Wells et al., 2008). The DAS28(CRP) scoring includes a 28 tender and swollen joint count, CRP measurement from blood analysis, and a general health assessment on a visual analog scale (Fransen et al., 2003).
DAS28(CRP) values range from 2.0 to 10.0, and more particularly reflect the following status: • Remission: DAS28(CRP) ≤2.6 • Low Disease activity: 2.6 <DAS28(CRP) ≤3.2 • Moderate Disease Activity: 3.2 <DAS28(CRP) ≤5.1 • High Disease Activity: DAS28(CRP) >5.1
In practice, the DAS28(CRP) measurement involves the evaluation 28 different joints including in the measurement (proximal interphalangeal joints (10 joints), metacarpophalangeal joints (10), wrists (2), elbows (2), shoulders (2), and knees (2)). When looking at these joints, both the number of joints with tenderness upon touching and swelling are counted.
Secondly, C-reactive protein level is measured.
Finally, the patient makes a subjective assessment of disease activity during the preceding 7 days on a scale between 0 and 100, where 0 is “no activity” and 100 is “highest activity possible”.
The DAS28(CRP) score is then calculated as follows:
Firstly, the patient is asked to make a vertical mark on a 100 mm Visual Analog Scale (VAS) corresponding to their general health or global disease activity on a touch screen to measure the VAS value, which is used in the formula below.
Secondly, a swollen and tender joint examination is then performed on the patient. The swollen and tender joints are recorded. From this examination are obtained the total amount of swollen joints (SJC) and the total amount of tender joints (TJC), which are used in the formula below.
Thirdly, C-reactive protein (CRP) levels are measured.
Finally, the values obtained above (VAS, TJC28, SJC28, and CRP) are computed into the following Formula to obtain the DAS28(CRP) score.
DAS28(CRP)=0.56*√{square root over (TJC28)}+0.28√{square root over (SJC28)}+[…] ln(CRP+1)+0.014*VAS
The improvement (decreases) in the DAS28(CRP) scores for each patient group at weeks 1, 2, 4, 8 and 12 is shown in Table LXXXVII and Table LXXXVIII below, together with the Hommel-corrected p-value for the pairwise comparisons of each group with placebo.
The number of subjects (N) provided in each groups corresponds to the number of subjects starting the study in each group, and the DAS28 (CRP) data reported below corresponds to the responding subjects continuing for the entire 24 weeks on their initial treatment course.

Structure (SMILES): O=C(Nc1nc2cccc(-c3ccc(CN4CCS(=O)(=O)CC4)cc3)n2n1)C1CC1 [Compound 1, cyclopropanecarboxylic acid {5-[4-(1,1-dioxo-thiomorpholin-4-ylmethyl)-phenyl]-[1,2,4]triazolo[1,5-a]pyridin-2-yl}-amide]
- DAS28(CRP) mean CFB (LOCF) (50 mg q.d., week 1, 12 weeks results): −0.65
- DAS28(CRP) mean CFB (LOCF) (50 mg q.d., week 1, 24 weeks results): −0.65
- DAS28(CRP) mean CFB (LOCF) (50 mg q.d., week 2, 12 weeks results): −0.94
- DAS28(CRP) mean CFB (LOCF) (50 mg q.d., week 2, 24 weeks results): −0.94
- DAS28(CRP) mean CFB (LOCF) (50 mg q.d., week 4, 12 weeks results): −1.28
- DAS28(CRP) mean CFB (LOCF) (50 mg q.d., week 4, 24 weeks results): −1.28
- DAS28(CRP) mean CFB (LOCF) (50 mg q.d., week 12, 12 weeks results): −1.75
- DAS28(CRP) mean CFB (LOCF) (50 mg q.d., week 12, 24 weeks results): −1.75
- DAS28(CRP) mean CFB (LOCF) (50 mg q.d., week 16, 24 weeks results): −1.91
- DAS28(CRP) mean CFB (LOCF) (50 mg q.d., week 20, 24 weeks results): −1.99
- DAS28(CRP) mean CFB (LOCF) (50 mg q.d., week 24, 24 weeks results): −1.98
- % patients reaching low disease activity and/or remission at week 12 (LOCF) (50 mg q.d., 12 weeks results): 24%
- % patients reaching low disease activity at week 12 (LOCF) (50 mg q.d., 12 weeks results): 12%
- % patients reaching remission at week 12 (LOCF) (50 mg q.d., 12 weeks results): 12%
- % patients reaching low disease activity and/or remission at week 24 (LOCF) (50 mg q.d., 24 weeks results): 33%
- % patients reaching low disease activity at week 24 (LOCF) (50 mg q.d., 24 weeks results): 12%
- % patients reaching remission at week 24 (LOCF) (50 mg q.d., 24 weeks results): 21%
- DAS28(CRP) mean CFB (LOCF) (50 mg q.d., week 8, 12 weeks results): −1.66
- DAS28(CRP) mean CFB (LOCF) (50 mg q.d., week 8, 24 weeks results): −1.66
- DAS28(CRP) mean CFB (LOCF) (100 mg q.d., week 1, 12 weeks results): −1.01
- DAS28(CRP) mean CFB (LOCF) (100 mg q.d., week 1, 24 weeks results): −1.00
- DAS28(CRP) mean CFB (LOCF) (100 mg q.d., week 2, 12 weeks results): −1.50
- DAS28(CRP) mean CFB (LOCF) (100 mg q.d., week 2, 24 weeks results): −1.51
- DAS28(CRP) mean CFB (LOCF) (100 mg q.d., week 4, 12 weeks results): −1.88
- DAS28(CRP) mean CFB (LOCF) (100 mg q.d., week 4, 24 weeks results): −1.89
- DAS28(CRP) mean CFB (LOCF) (100 mg q.d., week 8, 24 weeks results): −2.13
- DAS28(CRP) mean CFB (LOCF) (100 mg q.d., week 12, 12 weeks results): −2.21
- DAS28(CRP) mean CFB (LOCF) (100 mg q.d., week 12, 24 weeks results): −2.23
- DAS28(CRP) mean CFB (LOCF) (100 mg q.d., week 16, 24 weeks results): −2.51
- DAS28(CRP) mean CFB (LOCF) (100 mg q.d., week 20, 24 weeks results): −2.65
- DAS28(CRP) mean CFB (LOCF) (100 mg q.d., week 24, 24 weeks results): −2.70
- % patients reaching low disease activity and/or remission at week 12 (LOCF) (100 mg q.d., 12 weeks results): 34%
- % patients reaching low disease activity at week 12 (LOCF) (100 mg q.d., 12 weeks results): 13%
- % patients reaching remission at week 12 (LOCF) (100 mg q.d., 12 weeks results): 21%
- % patients reaching low disease activity and/or remission at week 24 (LOCF) (100 mg q.d., 24 weeks results): 51%
- % patients reaching low disease activity at week 24 (LOCF) (100 mg q.d., 24 weeks results): 14%
- % patients reaching remission at week 24 (LOCF) (100 mg q.d., 24 weeks results): 36%
- DAS28(CRP) mean CFB (LOCF) (100 mg q.d., week 8, 12 weeks results): −2.12
- DAS28(CRP) mean CFB (LOCF) (200 mg q.d., week 1, 12 weeks results): −1.17
- DAS28(CRP) mean CFB (LOCF) (200 mg q.d., week 1, 24 weeks results): −1.17
- DAS28(CRP) mean CFB (LOCF) (200 mg q.d., week 2, 12 weeks results): −1.52
- DAS28(CRP) mean CFB (LOCF) (200 mg q.d., week 2, 24 weeks results): −1.52
- DAS28(CRP) mean CFB (LOCF) (200 mg q.d., week 4, 12 weeks results): −1.92
- DAS28(CRP) mean CFB (LOCF) (200 mg q.d., week 4, 24 weeks results): −1.92
- DAS28(CRP) mean CFB (LOCF) (200 mg q.d., week 8, 24 weeks results): −2.31
- DAS28(CRP) mean CFB (LOCF) (200 mg q.d., week 12, 12 weeks results): −2.49
- DAS28(CRP) mean CFB (LOCF) (200 mg q.d., week 12, 24 weeks results): −2.47
- DAS28(CRP) mean CFB (LOCF) (200 mg q.d., week 16, 24 weeks results): −2.70
- DAS28(CRP) mean CFB (LOCF) (200 mg q.d., week 20, 24 weeks results): −2.86
- DAS28(CRP) mean CFB (LOCF) (200 mg q.d., week 24, 24 weeks results): −2.80
- % patients reaching low disease activity and/or remission at week 12 (LOCF) (200 mg q.d., 12 weeks results): 37%
- % patients reaching low disease activity at week 12 (LOCF) (200 mg q.d., 12 weeks results): 15%
- % patients reaching remission at week 12 (LOCF) (200 mg q.d., 12 weeks results): 22%
- % patients reaching low disease activity and/or remission at week 24 (LOCF) (200 mg q.d., 24 weeks results): 51%
- % patients reaching low disease activity at week 24 (LOCF) (200 mg q.d., 24 weeks results): 26%
- % patients reaching remission at week 24 (LOCF) (200 mg q.d., 24 weeks results): 26%
- DAS28(CRP) mean CFB (LOCF) (200 mg q.d., week 8, 12 weeks results): −2.30
